These results are taken from patent publication US5194383A, “Process for making L-aminoacylase” (priority 1991, dated 1993).

Data set [1] relates to L-amino acylase. The data set is classed as biochemical, Alcaligenes denitrificans DA181. Particulars: for influence of the ion on the enzyme: in words, 30 minutes at 37° C., buffer A. On the procedure:
Various metal ions were incubated with an appropriate amount of enzyme for 30 min in 50 mM Tris-HCl pH 8.0. The remaining activity was determined by ninhydrin method.

Data set [2] has as its system L-amino acylase. The experiment in a line: Substrate specificity of L-amino acylase (ninhydrin method). The following applies: for Relative activity (%) L-amino acylase: 37° C., 50 mM Tris-HCl buffer pH 8.0. Type of data set: biochemical, Alcaligenes denitrificans DA181. The procedure:
This enzyme may hydrolyze N-acetyl-L-amino acids with a higher reactivity, but hydrolyze the N-acetyl-D-amino acids with a lower reactivity.
(§1) A comparison of the substrate specificity of L-amino acylase of this invention with D-amino acylase is summarized as shown in Table 3.
(§2) The enzyme activity was determined at 37° C. in 50 mM TrisCHl
(§3) buffer pH 8.0 by ninhydrin method.

The subject of the next data set is D-amino acylase. Nature of the data set: Substrate specificity of D-amino acylase (ninhydrin method). Particulars: D-form of substrate; 37° C., 50 mM Tris-HCl buffer pH 8.0. The data set is classed as biochemical. On the procedure:
as §1, §2, §3

The subject of data set [3] is L-aminoacylase by Aspergillus. The following applies: conventional Aspergillus enzyme; cited from earlier work.
The mark [4] stands for this setting: metal ion 1 mM, 30 min, 50 mM Tris-HCl pH 8.0.
[5] abbreviates: metal ion 10^-1 mM, 30 min, 50 mM Tris-HCl pH 8.0, 100 µM.
The mark [6] stands for this setting: metal ion 10^-2 mM, 30 min, 50 mM Tris-HCl pH 8.0, 10 µM.
The mark [7] stands for this setting: metal ion 10^-3 mM, 30 min, 50 mM Tris-HCl pH 8.0, 1 µM.

Like-named read-outs stand apart in the source and are kept apart here.

Turning to `[Ba+2].[Cl-].[Cl-]` [BaCl2], the “relative activity of L-amino acylase (%)” value with L-amino acylase [1] (setting [4]) was determined as 92%.
On the same count and under the same terms, for `[Ca+2].[Cl-].[Cl-]` [CaCl2] the value was 94%.
In the case of `[Cl][Cd][Cl]` [CdCl2], the “influence of the ion on the enzyme” value with L-amino acylase [1] was “inhibited”. The “relative activity of L-amino acylase (%)” value in the data set on L-amino acylase [1] (setting [4]) amounted to 16%.
Take `[Cl-].[Cl-].[Co+2]` [CoCl2]: the “relative activity of L-amino acylase (%)” value with L-amino acylase [1] (setting [4]) was 120%.
Regarding `[Cl][Cu][Cl]` [CuCl2], in the data set with L-amino acylase [1], the “influence of the ion on the enzyme” value is listed as “inhibited”. The “relative activity of L-amino acylase (%)” value with L-amino acylase [1] (setting [4]) amounted to 5%; with L-amino acylase [1] (setting [5]), 77%; in the data set with L-amino acylase [1] (setting [6]), 90%; with L-amino acylase [1] (setting [7]) it was 94%.
As to `O=C(O)CN(CCN(CC(=O)O)CC(=O)O)CC(=O)O` [EDTA.2Na], the “relative activity of L-amino acylase (%)” value with L-amino acylase [1] (50 mm tris-hcl, pH 8, 30 min, 1000 µM) was 55%.
For the compound `[Cl][Fe][Cl]` [FeCl2], in the data set on L-amino acylase [1], the “influence of the ion on the enzyme” value is recorded as “inhibited”. The “relative activity of L-amino acylase (%)” value in the data set on L-amino acylase [1] (setting [4]) came out at 15%.
For the compound `[Cl][Hg][Cl]` [HgCl2], the “influence of the ion on the enzyme” value in the data set with L-amino acylase [1] was “inhibited”. Moreover, the “relative activity of L-amino acylase (%)” value came out at 0% with L-amino acylase [1] (setting [7]) and 0% in the data set on L-amino acylase [1] (metal ion 10^-4 mM, 30 min, 50 mM Tris-HCl pH 8.0, 0.1 µM).
With `[Cl-].[Cl-].[Mg+2]` [MgCl2], the “relative activity of L-amino acylase (%)” value in the data set on L-amino acylase [1] (setting [4]) turned out to be 98%.
Same read-out and setting: in the case of `[Cl][Mn][Cl]` [MnCl2] it was 86%.
Take `CC(=O)N[C@@H](C)C(=O)O` [N-acetyl-alanine]: the “Relative activity (%) L-amino acylase” value with L-amino acylase [2] (D-form of substrate) was 0%; with L-amino acylase [2] (L-form of substrate) it was 78%. Besides, the “Relative activity (%) D-amino acylase” value with D-amino acylase was found to be 25%.
For the compound `CC[C@@H](C)[C@H](NC(C)=O)C(=O)O` [N-acetyl-alloisoleucine], the “Relative activity (%) L-amino acylase” value with L-amino acylase [2] (D-form of substrate) was determined as 0%. In the data set on D-amino acylase, the “Relative activity (%) D-amino acylase” value amounted to 12%.
Turning to `CC(=O)N[C@@H](CCCNC(=N)N)C(=O)O` [N-acetyl-arginine], in the data set on L-amino acylase [2] (L-form of substrate), the “Relative activity (%) L-amino acylase” value amounted to 0.04%.
Regarding `CC(=O)N[C@@H](CC(N)=O)C(=O)O` [N-acetyl-asparagine], the results for the “Relative activity (%) L-amino acylase” value with L-amino acylase [2] (D-form of substrate) and in the data set with L-amino acylase [2] (L-form of substrate) were 0% and 3%, respectively. The “Relative activity (%) D-amino acylase” value in the data set on D-amino acylase is recorded as 17%.
In the case of `CC(=O)N[C@@H](CC(=O)O)C(=O)O` [N-acetyl-aspartic acid], the “Relative activity (%) L-amino acylase” value in the data set with L-amino acylase [2] (L-form of substrate) is on record as 1%.
Still for that read-out and setting: for `CC(=O)N[C@@H](CCC(=O)O)C(=O)O` [N-acetyl-glutamic acid] the value was 0.12%.
On the same count and under the same terms, in the case of `CC(=O)N[C@@H](Cc1c[nH]cn1)C(=O)O` [N-acetyl-histidine] it was 0.08%.
Regarding `CC(=O)N[C@@H](CC(C)C)C(=O)O` [N-acetyl-leucine], the entries for the “Relative activity (%) L-amino acylase” value in the data set with L-amino acylase [2] (D-form of substrate) and with L-amino acylase [2] (L-form of substrate) were 2% and 10%, respectively. The “Relative activity (%) D-amino acylase” value in the data set on D-amino acylase is recorded as 60%.
The like results for `CSCC[C@H](NC(C)=O)C(=O)O` [N-acetyl-methionine] were, in that order, 0.12%, 30% and 100%.
The like results for `CC(=O)N[C@@H](Cc1ccccc1)C(=O)O` [N-acetyl-phenylalanine] were, in that order, 0.9%, 34% and 81%.
In the case of `CC(=O)N[C@@H](C(=O)O)c1ccccc1` [N-acetyl-phenylglycine], in the data set with L-amino acylase [2] (D-form of substrate), the “Relative activity (%) L-amino acylase” value was 0%. The “Relative activity (%) D-amino acylase” value with D-amino acylase is listed as 5%.
For `CC(=O)N[C@@H](Cc1c[nH]c2ccccc12)C(=O)O` [N-acetyl-tryptophan], the figures for the “Relative activity (%) L-amino acylase” value in the data set on L-amino acylase [2] (D-form of substrate) and in the data set with L-amino acylase [2] (L-form of substrate) were 0.9% and 11%, respectively. Also, the “Relative activity (%) D-amino acylase” value in the data set on D-amino acylase worked out at 33%.
As for `CC(=O)N[C@@H](Cc1ccc(O)cc1)C(=O)O` [N-acetyl-tyrosine], the “Relative activity (%) L-amino acylase” value in the data set with L-amino acylase [2] (L-form of substrate) stood at 36%.
Turning to `CC(=O)N[C@H](C(=O)O)C(C)C` [N-acetyl-valine], the “Relative activity (%) L-amino acylase” value in the data set on L-amino acylase [2] (D-form of substrate) is 7%; in the data set with L-amino acylase [2] (L-form of substrate), 95%. In addition, the “Relative activity (%) D-amino acylase” value in the data set on D-amino acylase is recorded as 6%.
Regarding `CC(C)[C@H](NC(=O)CCl)C(=O)O` [N-chloroacetyl-L-valine], the “reactivity of hydrolysis by the enzyme” value with L-amino acylase [2] (in words) is on record as “especially high”.
As for `CC(C)[C@H](NC(=O)CCl)C(=O)O` [N-chloroacetyl-valine], the entries for the “Relative activity (%) L-amino acylase” value with L-amino acylase [2] (D-form of substrate) and in the data set on L-amino acylase [2] (L-form of substrate) were 0.8% and 100%, respectively. Moreover, the “Relative activity (%) D-amino acylase” value with D-amino acylase is given as 66%.
On to `[Cl][Ni][Cl]` [NiCl2], for which the “relative activity of L-amino acylase (%)” value with L-amino acylase [1] (setting [4]) is on record as 95%.
As to `[Cl][Pb][Cl]` [PbCl2], the “influence of the ion on the enzyme” value in the data set on L-amino acylase [1] is “inhibited”. In addition, the “relative activity of L-amino acylase (%)” value in the data set with L-amino acylase [1] (setting [4]) is 50%; in the data set with L-amino acylase [1] (setting [5]), 71%; in the data set with L-amino acylase [1] (setting [6]), 71%; with L-amino acylase [1] (setting [7]), 97%.
As to `[Cl-].[Cl-].[Sr+2]` [SrCl2], the “relative activity of L-amino acylase (%)” value with L-amino acylase [1] (setting [4]) was 80%.
With `[Cl-].[Cl-].[Zn+2]` [ZnCl2], in the data set on L-amino acylase [1], the “influence of the ion on the enzyme” value is “inhibited”. For the same compound, in the data set on L-amino acylase [1] (setting [4]), the “relative activity of L-amino acylase (%)” value came to 61%.
Regarding `[Co+2]` [cobalt ions], in data set [3], the enzyme activation is 2.5 fold.
